Assays:
TNBS colitis mouse model = type: in vivo, mice; settings: dexamethasone i.p. daily
Description: TNBS colitis model and treatment with CCL2—TNBS colitis was induced as previously described [Ohkawara et al. (2002) Gastroenterology, 123:256]. Briefly, mice were anesthetized by i.p. injection (35 μl per mouse) of a mixture containing 85% ketamine and 15% xylazine (20 mg/ml). Next, 100 μl of TNBS [55% volume of 50% ethanol mixed with 45% volume of TNBS solution ([…]; Sigma-Aldrich)] was infused into the colonic lumen (about 3.5 cm of the anal verge) via 1 ml syringe attached to a feeding needle. Treated mice were weighted daily and visually inspected for clinical symptoms, such as rectal bleeding and diarrhea.
TNBS mice were divided into 6 groups. CCL2 groups (10 mice in each group) were injected i.p. daily with different CCL2 concentrations (30 ng, 60 ng or 180 ng) in 200 μl of PBS from day 0 (immediately after TNBS induction) to day 6. Control groups (10 mice in each group) were injected i.p. daily with 200 μl PBS alone. Additionally, 5 mice were injected i.p. daily with dexamethasone; and 1 mouse which was not treated and served as negative control for future histology and weight.
Macroscopic and histological assessment of colitis—An observer blind to the experimental procedure scored colitis for clinical manifestation of disease. The colon was macroscopically examined (×5 magnification) to evaluate the macroscopic lesions according to the Wallace criteria. The Wallace score ranks macroscopic colon lesions on a scale from 0 to 16 based on criteria reflecting inflammation, such as hyperemia, thickening of the bowel and the extent of ulceration. The colon was cut lengthwise and fixed in 4% paraformaldehyde for future histology.

naïve T cells = assay: Cytoskeleton rearrangement (actin polymerization), naïve T cells; type: cell-based, mice; settings: CCL21 stimulation in presence of chemokine 0.1 ng/ml; FIG. 2e
Description: Cytoskeleton rearrangement—T cells were pre-incubated for 30 minutes in the presence or absence of CCL2 (0.1 ng/ml), and then stimulated with either CXCL12 (0.1 mg/ml PeproTech, Inc., Rocky Hill N.J.), SLC (CCL21, 0.4 mg/ml, PeproTech, Inc., Rocky Hill, N.J.), Rantes (0.1 mg/ml, R&D systems Minneapolis, Minn.), MIP-1β(0.1 mg/ml, R&D systems Minneapolis, Minn.) or Eotoxin (0.1 mg/ml R&D systems Minneapolis, Minn.) for 15 seconds. Cells were then immediately fixed with paraformaldehyde, permeabilized and their intracellular F-actin was stained with FITC-phalloidin (Sigma-Aldrich, St. Louis, Mo.), and then analyzed by flow cytometry to determine the state of their cytoskeleton, as previously described [Flaishon, L. F., et al., J. Biol. Chem. 276:46701 (2001)].

[1] = test system: human T cells interacting with VCAM-1 (VLA-4); assay: Laminar flow adhesion assay on VCAM-1 with co-immobilized CCL21; type: cell-based; settings: low dose chemokine pretreatment
Description: (§1) Laminar flow adhesion assays—Purified VCAM-1 or ICAM-1-Fc (both from R&D Systems, Minneapolis, Minn.) were coated with or without CCL21 (R&D Systems) on polystyrene plates as previously described [Grabovsky et al., J Exp Med. (2000) 192:495-506; Sigal et al., J Immunol. (2000) 165:442-452]. The polystyrene plates were each assembled on the lower wall of the flow chamber as previously described [Feigelson et al., J Biol Chem. (2001) 276:13891-13901]. All flow experiments were conducted at 37° C. Cells were washed with cation-free H/H medium, resuspended in binding medium (H/H medium supplemented with 1 mM CaCl2 and 1 mM MgCl2) and perfused through the flow chamber at low shear stress (0.5-0.75 dyn/cm^2) for 2 minutes. Tethers were defined as transient or rolling if cells attached briefly (<2 seconds) to the substrate and as arrests if immediately arrested and remaining stationary for at least 5 seconds of continuous flow. Frequencies of adhesive categories within differently pretreated cells were determined as a percentage of cells flowing immediately over the substrates, as previously described [Grabovsky et al., supra]. To assess resistance to detachment over time, accumulated cells were subjected to a shear stress of 5 dyn/cm^2 for 5 minutes. At the indicated time points, the number of cells that remained bound was expressed relative to T cell population originally accumulated in the first 2 minute period of the assay. Over 90% of cellular tethers to VCAM-1 or ICAM-1 were blocked by pretreating cells with VLA-4 or LFA-1 blockers respectively.

[2] = test system: human T cells interacting with ICAM-1 (LFA-1); assay: Laminar flow adhesion assay on ICAM-1 with co-immobilized CCL21; type: cell-based; settings: low dose chemokine pretreatment
Description: as §1

In the case of `C[C@@H]1C[C@H]2[C@@H]3CCC4=CC(=O)C=C[C@]4(C)[C@@]3(F)[C@@H](O)C[C@]2(C)[C@@]1(O)C(=O)CO` [dexamethasone, reference compound], the “Colon length (cm)” value (TNBS colitis mouse model) is reported as 8.17 ± 0.76 cm, the “Diarrhea (# of mice)” value (TNBS colitis mouse model; 3 mice) is reported as 0 # of mice and the Colitis score (TNBS colitis mouse model; Wallace score 0 to 16, mean±SEM) is reported as 0.67 ± 0.58.

In the case of “CXCL12: chemokine, chemoattractant for T cells; tested at low dose as comparator [reference compound]”, the “inhibitory effect of low levels of chemokine on actin polymerization of naïve T cells” value (“inhibitory effect” below) (naïve T cells) is reported as “no inhibitory effect”, the “post arrest adhesion strengthening on VCAM-1 (resistance to detachment)” value ([1]; high shear stress 5 dyn/cm^2, FIG. 6d) is reported as “retained” and the “VLA-4 activation by surface bound CCL21 (arrest on VCAM-1)” value ([1]; shear stress 0.75 dyn/cm^2, FIG. 6c) is reported as “retained”. The “post arrest adhesion strengthening on ICAM-1 (resistance to detachment)” value ([2]; high shear stress 5 dyn/cm^2, FIG. 6b) was “retained” and the “LFA-1 activation by surface bound CCL21 (arrest on ICAM-1)” value ([2]; shear stress 0.5 dyn/cm^2, FIG. 6a) was “retained”.

With “Eotoxin: comparator chemokine (R&D systems) [reference compound]” the “inhibitory effect” value (naïve T cells) was “no inhibitory effect”.

B1: Rantes: comparator chemokine (R&D systems) (protein, UniProt P13501 24-91, looked up)
C-C motif chemokine 5: SPYSSDTTPCCFAYIARPLPRAHIKEYFYTSGKCSNPAVVFVTRKNRQVCANPEKKWVREYINSLEMS
In the case of B1, the “inhibitory effect” value (naïve T cells) is reported as “no inhibitory effect”.

B2: Mip1β: comparator chemokine (R&D systems) (protein, UniProt P13236 24-92, looked up)
C-C motif chemokine 4: APMGSDPPTACCFSYTARKLPRNFVVDYYETSSLCSQPAVVFQTKRSKQVCADPSESWVQEYVYDLELN
In the case of B2, the “inhibitory effect” value (naïve T cells) is reported as “no inhibitory effect”.
